Values quoted from earlier work in PMC10215804, “Exploring Alternative Pathways to Target Bacterial Type II Topoisomerases Using NBTI Antibacterials: Beyond Halogen-Bonding Interactions” (Antibiotics, 2023).
Converted amounts (≈) assume the structure as drawn.

Legend:
E. coli (ATCC 25922) = settings: cited from earlier work
VRE = settings: cited from earlier work
MRSA (QA-11.7) = settings: cited from earlier work
E. faecalis RDK 057 = settings: cited from earlier work
S. aureus (ATCC 29213) = settings: cited from earlier work
E. coli N43 (CGSC# 5583) = settings: AcrA knockout; cited from earlier work
E. coli D22 = settings: lpxC mutation; cited from earlier work
P. aeruginosa RDK 184 = settings: cited from earlier work
S. aureus DNA gyrase = molecular target: T1, S. aureus DNA gyrase (Staphylococcus aureus, UniProt P20831); settings: supercoiling inhibition; cited from earlier work
T1 construct: purchased Inspiralis (Norwich, UK)

human topoisomerase IIα = molecular target: T2, human topoisomerase IIα (Homo sapiens, UniProt P11388); settings: residual activity at 100 µM compound; cited from earlier work
T2 construct: purchased Inspiralis (Norwich, UK)

MRSA (QA-11.2) = test system: MRSA (QA-11.2); parameters: method as in PMID 35970069; settings: cited from earlier work
E. coli ESBL QA-11.3 = test system: E. coli ESBL QA-11.3; parameters: method as in PMID 35970069; settings: cited from earlier work
S. aureus topoIV = molecular target: T3, S. aureus topoIV (Staphylococcus aureus, UniProt P0C1U9); settings: relaxation inhibition; cited from earlier work
T3 construct: purchased Inspiralis (Norwich, UK)

A. baumannii = test system: A. baumannii; parameters: method as in PMID 35970069; settings: cited from earlier work
MRSA(QA-12.1) = test system: MRSA(QA-12.1); parameters: method as in PMID 35970069; settings: cited from earlier work
E. coli DNA gyrase = molecular target: T4, E. coli DNA gyrase (Escherichia coli, UniProt P0AES4); settings: supercoiling inhibition; cited from earlier work
T4 construct: purchased Inspiralis (Norwich, UK)

E. coli topoIV = molecular target: T5, E. coli topoIV (Escherichia coli, UniProt P0AFI2); settings: relaxation inhibition; cited from earlier work
T5 construct: purchased Inspiralis (Norwich, UK)

K. pneumoniae = test system: K. pneumoniae; parameters: method as in PMID 35970069; settings: cited from earlier work

T2 sequence (P11388 whole entry): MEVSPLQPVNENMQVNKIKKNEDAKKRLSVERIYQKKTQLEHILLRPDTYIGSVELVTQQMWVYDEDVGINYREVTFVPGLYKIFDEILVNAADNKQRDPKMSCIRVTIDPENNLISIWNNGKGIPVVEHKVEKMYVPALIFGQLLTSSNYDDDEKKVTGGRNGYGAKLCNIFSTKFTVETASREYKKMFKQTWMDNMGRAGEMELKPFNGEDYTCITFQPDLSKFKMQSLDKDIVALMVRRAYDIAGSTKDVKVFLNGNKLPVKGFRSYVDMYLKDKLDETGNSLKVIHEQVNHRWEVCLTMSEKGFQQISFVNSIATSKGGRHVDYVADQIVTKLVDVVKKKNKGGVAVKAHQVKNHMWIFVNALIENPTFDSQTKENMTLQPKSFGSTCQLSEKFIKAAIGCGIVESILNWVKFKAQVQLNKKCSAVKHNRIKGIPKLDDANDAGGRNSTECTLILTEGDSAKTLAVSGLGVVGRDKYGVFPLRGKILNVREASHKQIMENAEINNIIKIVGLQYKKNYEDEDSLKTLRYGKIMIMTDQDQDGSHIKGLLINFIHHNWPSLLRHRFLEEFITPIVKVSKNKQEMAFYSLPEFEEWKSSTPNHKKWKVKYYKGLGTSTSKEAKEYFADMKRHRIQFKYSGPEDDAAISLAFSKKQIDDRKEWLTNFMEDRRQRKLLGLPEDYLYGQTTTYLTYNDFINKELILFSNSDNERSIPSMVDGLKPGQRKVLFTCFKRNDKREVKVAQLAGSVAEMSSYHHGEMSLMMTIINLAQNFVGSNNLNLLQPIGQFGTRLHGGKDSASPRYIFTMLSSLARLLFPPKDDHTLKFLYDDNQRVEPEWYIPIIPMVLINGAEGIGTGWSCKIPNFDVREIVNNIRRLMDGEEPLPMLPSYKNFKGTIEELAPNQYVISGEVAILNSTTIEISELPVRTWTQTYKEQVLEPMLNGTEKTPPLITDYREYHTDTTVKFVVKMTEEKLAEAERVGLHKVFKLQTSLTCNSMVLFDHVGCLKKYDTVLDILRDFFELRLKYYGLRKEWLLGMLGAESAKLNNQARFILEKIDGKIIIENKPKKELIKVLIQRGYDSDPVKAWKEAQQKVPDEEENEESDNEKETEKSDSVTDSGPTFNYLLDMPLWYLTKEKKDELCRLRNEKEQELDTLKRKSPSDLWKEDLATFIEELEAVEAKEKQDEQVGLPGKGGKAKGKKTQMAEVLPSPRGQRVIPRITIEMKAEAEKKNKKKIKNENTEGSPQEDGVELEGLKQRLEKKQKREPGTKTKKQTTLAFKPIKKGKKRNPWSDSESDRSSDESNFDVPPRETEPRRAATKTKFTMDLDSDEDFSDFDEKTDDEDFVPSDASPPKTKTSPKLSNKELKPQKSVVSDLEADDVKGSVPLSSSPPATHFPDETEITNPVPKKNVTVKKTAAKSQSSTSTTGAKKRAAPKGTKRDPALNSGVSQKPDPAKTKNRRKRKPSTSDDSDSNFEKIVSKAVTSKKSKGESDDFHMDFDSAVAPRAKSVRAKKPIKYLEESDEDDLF
T1 sequence (P20831 whole entry): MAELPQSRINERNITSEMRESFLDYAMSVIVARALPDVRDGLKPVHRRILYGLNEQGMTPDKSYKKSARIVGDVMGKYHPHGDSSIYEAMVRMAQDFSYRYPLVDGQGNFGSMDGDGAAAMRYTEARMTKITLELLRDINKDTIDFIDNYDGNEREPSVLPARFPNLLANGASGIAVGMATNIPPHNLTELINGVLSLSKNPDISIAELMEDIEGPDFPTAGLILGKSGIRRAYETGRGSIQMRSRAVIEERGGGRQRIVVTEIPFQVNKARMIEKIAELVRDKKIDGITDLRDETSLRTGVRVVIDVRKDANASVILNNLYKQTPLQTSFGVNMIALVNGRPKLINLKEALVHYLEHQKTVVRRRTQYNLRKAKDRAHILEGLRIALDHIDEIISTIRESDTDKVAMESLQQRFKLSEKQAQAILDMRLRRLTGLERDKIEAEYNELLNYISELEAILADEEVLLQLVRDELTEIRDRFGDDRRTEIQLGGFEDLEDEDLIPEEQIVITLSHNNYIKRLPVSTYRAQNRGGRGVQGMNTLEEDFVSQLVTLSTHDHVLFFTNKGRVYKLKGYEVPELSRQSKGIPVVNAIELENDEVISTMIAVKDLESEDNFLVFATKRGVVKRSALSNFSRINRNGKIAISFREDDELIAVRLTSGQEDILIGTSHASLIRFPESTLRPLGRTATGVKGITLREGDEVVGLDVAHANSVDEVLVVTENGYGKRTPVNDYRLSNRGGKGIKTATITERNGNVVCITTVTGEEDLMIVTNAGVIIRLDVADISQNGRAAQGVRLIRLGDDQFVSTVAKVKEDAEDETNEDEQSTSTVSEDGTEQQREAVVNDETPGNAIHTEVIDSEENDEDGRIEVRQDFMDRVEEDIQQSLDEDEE
T1 sequence (P0A0K8 whole entry partner): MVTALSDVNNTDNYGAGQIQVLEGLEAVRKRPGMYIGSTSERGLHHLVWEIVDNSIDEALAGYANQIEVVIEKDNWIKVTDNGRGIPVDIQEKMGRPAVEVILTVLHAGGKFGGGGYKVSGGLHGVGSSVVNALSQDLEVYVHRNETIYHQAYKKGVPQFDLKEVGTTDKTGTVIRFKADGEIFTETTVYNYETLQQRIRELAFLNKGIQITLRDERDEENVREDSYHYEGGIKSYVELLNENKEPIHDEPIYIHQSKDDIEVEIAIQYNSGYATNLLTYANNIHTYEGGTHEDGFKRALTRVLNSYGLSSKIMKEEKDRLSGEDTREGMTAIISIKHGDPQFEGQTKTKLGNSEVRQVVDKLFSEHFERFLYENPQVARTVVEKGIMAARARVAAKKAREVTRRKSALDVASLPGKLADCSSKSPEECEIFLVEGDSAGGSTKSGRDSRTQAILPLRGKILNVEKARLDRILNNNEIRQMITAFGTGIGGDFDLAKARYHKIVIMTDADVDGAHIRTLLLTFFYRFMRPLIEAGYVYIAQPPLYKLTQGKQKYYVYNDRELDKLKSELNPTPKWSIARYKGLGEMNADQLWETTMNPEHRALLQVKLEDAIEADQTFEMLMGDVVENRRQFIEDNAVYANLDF
T5 sequence (P20083 whole entry): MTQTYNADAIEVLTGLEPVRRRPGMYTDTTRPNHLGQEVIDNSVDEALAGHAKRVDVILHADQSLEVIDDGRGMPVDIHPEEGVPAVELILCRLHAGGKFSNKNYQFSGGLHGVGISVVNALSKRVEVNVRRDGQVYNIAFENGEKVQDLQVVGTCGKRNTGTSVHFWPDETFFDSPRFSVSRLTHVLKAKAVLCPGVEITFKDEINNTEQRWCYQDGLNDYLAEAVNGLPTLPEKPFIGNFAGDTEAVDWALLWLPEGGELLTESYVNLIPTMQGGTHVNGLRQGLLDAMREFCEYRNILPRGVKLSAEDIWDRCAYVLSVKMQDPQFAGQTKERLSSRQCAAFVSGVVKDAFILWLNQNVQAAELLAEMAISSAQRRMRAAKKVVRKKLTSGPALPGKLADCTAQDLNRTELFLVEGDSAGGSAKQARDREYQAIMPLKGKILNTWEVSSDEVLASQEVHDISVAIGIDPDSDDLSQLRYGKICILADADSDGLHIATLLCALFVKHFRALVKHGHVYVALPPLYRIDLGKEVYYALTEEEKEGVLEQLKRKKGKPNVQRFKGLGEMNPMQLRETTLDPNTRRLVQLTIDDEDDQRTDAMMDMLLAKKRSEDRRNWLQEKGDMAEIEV
T5 sequence (P0AFI2 whole entry): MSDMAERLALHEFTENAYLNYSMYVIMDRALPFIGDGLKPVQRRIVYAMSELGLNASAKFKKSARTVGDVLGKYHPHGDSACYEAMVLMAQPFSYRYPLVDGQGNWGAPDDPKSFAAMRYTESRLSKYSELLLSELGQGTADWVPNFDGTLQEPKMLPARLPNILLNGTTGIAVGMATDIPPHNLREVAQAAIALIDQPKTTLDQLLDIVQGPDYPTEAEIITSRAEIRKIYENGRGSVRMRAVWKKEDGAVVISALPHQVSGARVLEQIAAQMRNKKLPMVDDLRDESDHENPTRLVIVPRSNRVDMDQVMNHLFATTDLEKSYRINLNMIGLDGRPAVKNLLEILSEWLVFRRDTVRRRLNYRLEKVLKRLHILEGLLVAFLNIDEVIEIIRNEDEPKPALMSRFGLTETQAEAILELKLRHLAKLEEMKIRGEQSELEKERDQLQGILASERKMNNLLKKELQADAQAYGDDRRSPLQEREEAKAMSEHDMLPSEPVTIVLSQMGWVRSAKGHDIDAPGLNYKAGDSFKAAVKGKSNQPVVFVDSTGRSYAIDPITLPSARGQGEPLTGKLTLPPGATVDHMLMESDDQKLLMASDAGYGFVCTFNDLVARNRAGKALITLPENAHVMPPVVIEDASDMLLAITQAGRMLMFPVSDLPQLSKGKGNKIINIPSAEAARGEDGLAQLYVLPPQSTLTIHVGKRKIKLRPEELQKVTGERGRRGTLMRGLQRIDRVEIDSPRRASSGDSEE

COc1ccc2nccc(CCN3CCC(NCc4ccc(Br)cc4)CC3)c2n1 [Compound 1]
MIC E. coli (ATCC 25922) (E. coli (ATCC 25922)): 2 µg/mL (≈ 4.39 µM)
MIC VRE (VRE): 2 µg/mL (≈ 4.39 µM)
MIC MRSA (QA-11.7) (MRSA (QA-11.7)): 0.5 µg/mL (≈ 1.1 µM)
MIC E. faecalis RDK 057 (E. faecalis RDK 057): 0.5 µg/mL (≈ 1.1 µM)
MIC S. aureus (ATCC 29213) (S. aureus (ATCC 29213)): 0.125 µg/mL (≈ 0.274 µM)
MIC E. coli N43 (CGSC# 5583) (E. coli N43 (CGSC# 5583)): 0.125 µg/mL (≈ 0.274 µM)
MIC E. coli D22 (E. coli D22): 0.125 µg/mL (≈ 0.274 µM)
MIC P. aeruginosa RDK 184 (P. aeruginosa RDK 184): 128 µg/mL (≈ 281 µM)
IC50 (S. aureus DNA gyrase): 26 ± 10 nM
Human TopoIIα (% RA at 100 µM) (human topoisomerase IIα): 98 ± 3%

COc1ccc2nccc(OCC3CCC(NCc4ccc(Br)cc4)CC3)c2n1 (stereo not shown) [Compound 2]
MIC MRSA (QA-11.2) (MRSA (QA-11.2)): 0.5 µg/mL (≈ 1.1 µM)
MIC E. coli (ATCC 25922) (E. coli (ATCC 25922)): 64 µg/mL (≈ 140 µM)
MIC E. coli ESBL QA-11.3 (E. coli ESBL QA-11.3): 128 µg/mL (≈ 280 µM)
MIC VRE (VRE): 1 µg/mL (≈ 2.19 µM)
MIC MRSA (QA-11.7) (MRSA (QA-11.7)): 0.25 µg/mL (≈ 0.548 µM)
MIC E. faecalis RDK 057 (E. faecalis RDK 057): 1 µg/mL (≈ 2.19 µM)
MIC S. aureus (ATCC 29213) (S. aureus (ATCC 29213)): 0.125 µg/mL (≈ 0.274 µM)
IC50 (S. aureus topoIV): > 100000 nM
MIC E. coli N43 (CGSC# 5583) (E. coli N43 (CGSC# 5583)): 1 µg/mL (≈ 2.19 µM)
MIC E. coli D22 (E. coli D22): 8 µg/mL (≈ 17.5 µM)
MIC A. baumannii (A. baumannii): 128 µg/mL (≈ 280 µM)
MIC MRSA(QA-12.1) (MRSA(QA-12.1)): 0.25 µg/mL (≈ 0.548 µM)
IC50 (E. coli DNA gyrase): 4800 ± 774 nM
MIC P. aeruginosa RDK 184 (P. aeruginosa RDK 184): 32 µg/mL (≈ 70.1 µM)
IC50 (E. coli topoIV): 495 ± 184 nM
MIC K. pneumoniae (K. pneumoniae): 128 µg/mL (≈ 280 µM)
IC50 (S. aureus DNA gyrase): 372 ± 2 nM
Human TopoIIα (% RA at 100 µM) (human topoisomerase IIα): 106 ± 3%
